Results: the supplement of paper PMC10307832

Columns and labels:
Assay in all cases: relative viability (nuclei count vs DMSO), 5 days (fraction); higher = more cells survive
201T = test system: 201T
How it was run: (§1)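 Medians of duplicate plates are given as relative viability. That measure is the nuclei count in treated wells divided by the count in vehicle wells. Counts were taken on 4× images of lung cancer cell lines in 1536-well plates, 5 days after pin-tool dosing the day after seeding with one drug alone or a fixed anchor-drug dose plus five library-drug doses (not always all listed) in √10 steps.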

A-427 = test system: A-427
How it was run: as §1

COR-L23 = test system: COR-L23
How it was run: as §1

H3255 = test system: H3255
How it was run: as §1

HCC-44 = test system: HCC-44
How it was run: as §1

LC-2-ad = test system: LC-2-ad
How it was run: as §1

LCLC-103H = test system: LCLC-103H
How it was run: as §1

LCLC-97TM1 = test system: LCLC-97TM1
How it was run: as §1

LK-2 = test system: LK-2
How it was run: as §1

LU99A = test system: LU99A
How it was run: as §1

NCI-H1563 = test system: NCI-H1563
How it was run: as §1

## CC(=O)O[C@@]12CO[C@@H]1C[C@H](O)[C@@]1(C)C(=O)[C@H](O)C3=C(C)[C@@H](OC(=O)[C@H](O)[C@@H](NC(=O)OC(C)(C)C)c4ccccc4)C[C@@](O)([C@@H](OC(=O)c4ccccc4)[C@H]21)C3(C)C [Docetaxel] + N=C(N)NC(=N)NCCc1ccccc1 [Phenformin] (partner 250 µM)
201T; first compound 0.0002 µM
  relative viability: 0.4
201T; first compound 0.000632 µM
  relative viability: 0.366
201T; first compound 0.002 µM
  relative viability: 0.36
201T; first compound 0.006325 µM
  relative viability: 0.342
201T; first compound 0.02 µM
  relative viability: 0.242
A-427; first compound 0.0002 µM
  relative viability: 0.324
A-427; first compound 0.000632 µM
  relative viability: 0.328
A-427; first compound 0.002 µM
  relative viability: 0.165
A-427; first compound 0.006325 µM
  relative viability: 0.149
A-427; first compound 0.02 µM
  relative viability: 0.12
COR-L23; first compound 0.0002 µM
  relative viability: 0.399
COR-L23; first compound 0.000632 µM
  relative viability: 0.32
COR-L23; first compound 0.002 µM
  relative viability: 0.167
COR-L23; first compound 0.006325 µM
  relative viability: 0.106
COR-L23; first compound 0.02 µM
  relative viability: 0.098
H3255; first compound 0.0002 µM
  relative viability: 0.353
H3255; first compound 0.000632 µM
  relative viability: 0.349
H3255; first compound 0.002 µM
  relative viability: 0.312
H3255; first compound 0.006325 µM
  relative viability: 0.357
H3255; first compound 0.02 µM
  relative viability: 0.259
HCC-44; first compound 0.0002 µM
  relative viability: 0.185
HCC-44; first compound 0.000632 µM
  relative viability: 0.113
HCC-44; first compound 0.002 µM
  relative viability: 0.113
HCC-44; first compound 0.006325 µM
  relative viability: 0.101
HCC-44; first compound 0.02 µM
  relative viability: 0.0735
LC-2-ad; first compound 0.0002 µM
  relative viability: 0.497
LC-2-ad; first compound 0.000632 µM
  relative viability: 0.494
LC-2-ad; first compound 0.002 µM
  relative viability: 0.327
LC-2-ad; first compound 0.006325 µM
  relative viability: 0.243
LCLC-103H; first compound 0.0002 µM
  relative viability: 0.347
LCLC-103H; first compound 0.000632 µM
  relative viability: 0.344
LCLC-103H; first compound 0.002 µM
  relative viability: 0.308
LCLC-103H; first compound 0.006325 µM
  relative viability: 0.282
LCLC-103H; first compound 0.02 µM
  relative viability: 0.248
LCLC-97TM1; first compound 0.0002 µM
  relative viability: 0.403
LCLC-97TM1; first compound 0.000632 µM
  relative viability: 0.366
LCLC-97TM1; first compound 0.002 µM
  relative viability: 0.267
LCLC-97TM1; first compound 0.006325 µM
  relative viability: 0.162
LCLC-97TM1; first compound 0.02 µM
  relative viability: 0.131
LK-2; first compound 0.0002 µM
  relative viability: 0.369
LK-2; first compound 0.000632 µM
  relative viability: 0.27
LK-2; first compound 0.002 µM
  relative viability: 0.118
LK-2; first compound 0.006325 µM
  relative viability: 0.153
LK-2; first compound 0.02 µM
  relative viability: 0.124
LU99A; first compound 0.0002 µM
  relative viability: 0.811
LU99A; first compound 0.000632 µM
  relative viability: 0.656
LU99A; first compound 0.002 µM
  relative viability: 0.364
LU99A; first compound 0.006325 µM
  relative viability: 0.335
LU99A; first compound 0.02 µM
  relative viability: 0.242
NCI-H1563; first compound 0.0002 µM
  relative viability: 0.619
NCI-H1563; first compound 0.000632 µM
  relative viability: 0.683
NCI-H1563; first compound 0.002 µM
  relative viability: 0.661
NCI-H1563; first compound 0.006325 µM
  relative viability: 0.582
